Test results from patent publication US20150275306A1, “METHODS AND MEANS FOR PREDICTING RESISTANCE TO ANTI-CANCER TREATMENT” (Stichting Het Nederlands Kanker Instituut Antoni van …, priority 2012, published 2015).

What was measured:
[1] = tested on: H3122 cells; assay: Long-term cell proliferation (colony formation) assay in H3122; assay type: cell-based; conditions: for effect of MED12 knockdown on response to ALK inhibitors, H3122: shMED12 #1-3, 300 nM crizotinib or 2.5 nM NVP-TAE684; for effect of recombinant TGFbeta treatment on drug response, H3122: TGFbeta-dosage dependent, crizotinib, cisplatin 2 μM; for effect of MED12 knockdown on response to chemotherapy drugs, H3122: shMED12 #4 and #5, 2 μM cisplatin or 2.5 μM 5-FU, 18 days
Protocol: (§1) H3122, PC9, H3255, SK-CO-1 and SW1417 cells were cultured in RPMI with 8% heat inactivated fetal bovine serum, penicillin and streptomycin at 5% CO2. HEK 293T, Phoenix and A375, SK-MEL-28 and Huh-7 cells were cultured in DMEM with 8% heat-inactivated fetal bovine serum, penicillin and streptomycin at 5% CO2. Subclones of each cell line expressing the murine ecotropic receptor were generated and used for all experiments shown. Phoenix cells were used as producers of retroviral supernatants as described at www.stanford.edu/group/nolan/retroviral_systems/phx.html. HEK 293T cells were used as producers of lentiviral supernatants as described at www.broadinstitute.org/rnai/public/resources/protocols. The calcium phosphate method was used for the transfection of Phoenix and 293T cells. Infected cells were selected for successful retroviral integration using 2 μg/ml of puromycin.
(§2) For long-term cell proliferation assays, cells were seeded into 6-well plates (2-5×10E4 cells/well) and cultured both in the absence and presence of drugs as indicated. More details are described (Huang et al., 2009. Cancer Cell 15: 328-340). All knockdown and overexpression experiments were done by retroviral or lentiviral infection. All relevant assays were performed independently at least three times.

[2] = tested on: H3122 cells; conditions: parental H3122, EML4-ALK translocation; McDermott et al., 2008; cited from earlier work
[3] = tested on: H3255 cells; assay type: cell-based
Protocol: (§3) H3122, PC9, H3255, SK-CO-1 and SW1417 cells were cultured in RPMI with 8% heat inactivated fetal bovine serum, penicillin and streptomycin at 5% CO2. […] Subclones of each cell line expressing the murine ecotropic receptor were generated and used for all experiments shown. Phoenix cells were used as producers of retroviral supernatants as described at www.stanford.edu/group/nolan/retroviral_systems/phx.html. […] Infected cells were selected for successful retroviral integration using 2 μg/ml of puromycin.
(§4) For long-term cell proliferation assays, cells were seeded into 6-well plates (2-5×10E4 cells/well) and cultured both in the absence and presence of drugs as indicated. […] All knockdown and overexpression experiments were done by retroviral or lentiviral infection. All relevant assays were performed independently at least three times.

[4] = tested on: PC9 cells; assay: Long-term cell proliferation (colony formation) assay in PC9; assay type: cell-based; conditions: for effect of recombinant TGFbeta treatment on drug response, PC9: TGFbeta-dosage dependent, gefitinib 50 nM, cisplatin 0.7 μM
Protocol: as §3, §4

[5] = tested on: Huh-7 HCC cells; assay: Long-term cell proliferation (colony formation) assay in Huh-7; assay type: cell-based
Protocol: as §1, §2

[6] = tested on: MEK/ERK activation in H3255 cells; assay: Western blotting of MEK/ERK activation in H3255; assay type: cell-based
Source text: (§5) Antibody against MED12 (A300-774A) and MED13 (A301-278A) was from Bethyl Laboratories; antibodies against Vimentin (RV202) and N-cadherin (ab18203) were from Abcam; antibody against p-SMAD2 (Ser465/467, #3101), SMAD2 (L16D3, #3103), pMEK1/2 (S217/221, #9121) and MEK1/2 (L38C12, #4694) were from Cell Signaling; anti-Flag M2 (F1804) was from Sigma; antibodies against HSP90 (H-114), p-ERK (E-4), ERK1 (C-16), ERK2 (C-14), CDK8 (D-9), Lamin A/C (636), SP1 (PEP2), alpha-TUBULIN (H-183), TGFbeta R2 (C-16), CDK8 (D9) and normal rabbit IgG control were from Santa Cruz Biotechnology; A mixture of ERK1 and ERK2 antibodies was used for detection of total ERK; 12CA5 hybridoma supernatant was also used to detect HA tagged-TGFbeta R2.

[7] = tested on: MEK/ERK activation in H3122 cells; assay: Western blotting of MEK/ERK activation in H3122; assay type: cell-based; conditions: data not shown
Source text: as §5

[8] = tested on: A375 melanoma cells (BRAFV600E); assay: Long-term cell proliferation (colony formation) assay in A375; assay type: cell-based; conditions: without targeted cancer drugs
Protocol: as §3, §4

[9] = tested on: Vimentin, N-cadherin and p-ERK in Huh7 cells; assay: Western blotting of mesenchymal markers and p-ERK in Huh7; assay type: cell-based; conditions: 50 picoM of TGFbeta for 6 days
Source text: as §5

[10] = tested on: MEK/ERK activation in PC9 cells; assay: Western blotting of MEK/ERK activation in PC9; assay type: cell-based
Source text: as §5

[11] = tested on: SK-CO-1 colorectal cancer cells (KRASV12); assay: Long-term cell proliferation (colony formation) assay in SK-CO-1; assay type: cell-based
Protocol: as §1, §2

[12] = biological target: TGFbeta receptor Type II (Homo sapiens, UniProt P37173); conditions: cited from earlier work
TGFbeta receptor Type II, sequence (P37173 23-567, species assumed): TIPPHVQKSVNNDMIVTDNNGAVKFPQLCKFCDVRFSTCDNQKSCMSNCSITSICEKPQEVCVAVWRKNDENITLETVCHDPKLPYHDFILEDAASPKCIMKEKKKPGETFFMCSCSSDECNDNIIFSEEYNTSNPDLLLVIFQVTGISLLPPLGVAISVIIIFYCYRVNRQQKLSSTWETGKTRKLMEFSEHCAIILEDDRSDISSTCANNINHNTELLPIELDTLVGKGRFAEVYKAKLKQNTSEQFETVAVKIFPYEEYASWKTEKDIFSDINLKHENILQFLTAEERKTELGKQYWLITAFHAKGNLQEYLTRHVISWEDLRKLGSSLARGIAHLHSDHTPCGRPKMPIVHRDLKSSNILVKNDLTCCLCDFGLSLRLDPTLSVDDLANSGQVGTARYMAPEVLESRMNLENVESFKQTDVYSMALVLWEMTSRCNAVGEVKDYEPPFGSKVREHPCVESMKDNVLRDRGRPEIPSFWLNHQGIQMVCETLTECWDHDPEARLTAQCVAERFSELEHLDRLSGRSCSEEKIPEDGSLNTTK

For `COc1cc(N2CCC(N3CCN(C)CC3)CC2)ccc1Nc1ncc(Cl)c(Nc2ccccc2S(=O)(=O)C(C)C)n1` [NVP-TAE684], the “effect of MED12 knockdown on response to ALK inhibitors, H3122” value ([1]; 28 days) is listed as “conferred resistance” and the “sensitivity of H3122 cells to selective ALK inhibitors” value [2] is listed as “exquisitely sensitive”.
With `C#Cc1cccc(Nc2ncnc3cc(OCCOC)c(OCCOC)cc23)c1` [erlotinib] the “effect of MED12 knockdown on response to EGFR inhibitors, H3255” value [3] was “conferred resistance” and the “effect of MED12 knockdown on response to EGFR inhibitors, PC9” value [4] was “conferred resistance”.
In the case of “recombinant TGFbeta: Recombinant hTGFbeta 1 (240-B/CF) purchased from R&D systems”, the “proliferation of Huh-7 cells, TGFbeta alone” value ([5]; without targeted cancer drugs, data not shown) is reported as “growth inhibition”, the “MEK/ERK activation in H3255 cells” value [6] is reported as “caused MEK/ERK activation” and the “MEK/ERK activation in H3122 cells” value [7] is reported as “caused MEK/ERK activation”. The “proliferation of A375 cells, TGFbeta alone” value [8] was “growth inhibition”, the “levels of Vimentin, N-cadherin and p-ERK in Huh7 cells” value [9] was “increased levels of Vimentin, N-cadherin and p-ERK” and the “MEK/ERK activation in PC9 cells” value [10] was “caused MEK/ERK activation”.
In the case of `C[C@@H](Oc1cc(-c2cnn(C3CCNCC3)c2)cnc1N)c1c(Cl)ccc(F)c1Cl` [crizotinib], the “effect of recombinant TGFbeta treatment on drug response, H3122” value [1] is reported as “leads to resistance”, the “proliferation of control H3122 cells” value ([1]; pRS control cells, 300 nM crizotinib alone, 28 days) is reported as “potently inhibited the proliferation” and the “effect of MED12 knockdown on response to ALK inhibitors, H3122” value ([1]; 28 days) is reported as “conferred resistance”. For the same molecule, the “sensitivity of H3122 cells to selective ALK inhibitors” value [2] was “exquisitely sensitive”.
With `O=c1[nH]cc(F)c(=O)[nH]1` [5-FU, 5-Fluorouracil] the “effect of MED12 knockdown on response to chemotherapy drugs, H3122” value [1] was “confers resistance”.
For `Cn1cnc2c(F)c(Nc3ccc(Br)cc3Cl)c(C(=O)NOCCO)cc21` [AZD6244, seluteminib], the “effect of MED12 knockdown on response to MEK inhibitor, SK-CO-1” value ([11]; 0.5 μM AZD6244, 28 days) was “conferred resistance”, the “effect of recombinant TGFbeta treatment on drug response, SK-CO-1” value ([11]; TGFbeta-dosage dependent, AZD6244 0.5 μM) was “leads to resistance” and the “sensitivity of SK-CO-1 cells” value ([11]; parental cells) was “highly sensitive”.
With `N.N.[Cl][Pt][Cl]` [cisplatin] the “effect of recombinant TGFbeta treatment on drug response, H3122” value [1] was “leads to resistance”, the “effect of MED12 knockdown on response to chemotherapy drugs, H3122” value [1] was “confers resistance” and the “effect of recombinant TGFbeta treatment on drug response, PC9” value [4] was “leads to resistance”. For the same molecule, the “effect of MED12 knockdown on response to cisplatin, PC9” value ([4]; shMED12 #4 and #5, 0.37 or 1.1 μM cisplatin, 21 days) was “confers resistance”.
For `COc1cc2ncnc(Nc3ccc(F)c(Cl)c3)c2cc1OCCCN1CCOCC1` [gefitinib], the “effect of recombinant TGFbeta treatment on drug response, PC9” value [4] was “leads to resistance”.
For `Cc1cccc(-c2nn3c(c2-c2ccnc4ccc(C(N)=O)cc24)CCC3)n1` [LY2157299, 4-(2-(6-methylpyridin-2-yl)-5,6-dihydro-4H-pyrrolo[1,2-b]pyrazol-3-yl)quinoline-6-carboxamide], the “proliferation of control and MED12KD H3122 cells, monotherapy” value ([1]; 1 μM LY2157299 alone, 14 days) is given as “little effect” and the IC50 [12] is given as 2 nM.
With `CNC(=O)c1cc(Oc2ccc(NC(=O)Nc3ccc(Cl)c(C(F)(F)F)c3)cc2)ccn1` [sorafenib] the “effect of MED12 knockdown on response to sorafenib, Huh-7” value ([5]; 2 μM sorafenib, 21 days) was “became resistant”.
